Molecular target: T1, androgen receptor (AR) (Homo sapiens, UniProt P10275, T878A)
T1 construct: LNCaP cells expressing ARR2PB-FireflyLuc and CMV-RenillaLuc; endogenous in cells; host or cells: LNCaP
T1 sequence (P10275 1-920 T878A): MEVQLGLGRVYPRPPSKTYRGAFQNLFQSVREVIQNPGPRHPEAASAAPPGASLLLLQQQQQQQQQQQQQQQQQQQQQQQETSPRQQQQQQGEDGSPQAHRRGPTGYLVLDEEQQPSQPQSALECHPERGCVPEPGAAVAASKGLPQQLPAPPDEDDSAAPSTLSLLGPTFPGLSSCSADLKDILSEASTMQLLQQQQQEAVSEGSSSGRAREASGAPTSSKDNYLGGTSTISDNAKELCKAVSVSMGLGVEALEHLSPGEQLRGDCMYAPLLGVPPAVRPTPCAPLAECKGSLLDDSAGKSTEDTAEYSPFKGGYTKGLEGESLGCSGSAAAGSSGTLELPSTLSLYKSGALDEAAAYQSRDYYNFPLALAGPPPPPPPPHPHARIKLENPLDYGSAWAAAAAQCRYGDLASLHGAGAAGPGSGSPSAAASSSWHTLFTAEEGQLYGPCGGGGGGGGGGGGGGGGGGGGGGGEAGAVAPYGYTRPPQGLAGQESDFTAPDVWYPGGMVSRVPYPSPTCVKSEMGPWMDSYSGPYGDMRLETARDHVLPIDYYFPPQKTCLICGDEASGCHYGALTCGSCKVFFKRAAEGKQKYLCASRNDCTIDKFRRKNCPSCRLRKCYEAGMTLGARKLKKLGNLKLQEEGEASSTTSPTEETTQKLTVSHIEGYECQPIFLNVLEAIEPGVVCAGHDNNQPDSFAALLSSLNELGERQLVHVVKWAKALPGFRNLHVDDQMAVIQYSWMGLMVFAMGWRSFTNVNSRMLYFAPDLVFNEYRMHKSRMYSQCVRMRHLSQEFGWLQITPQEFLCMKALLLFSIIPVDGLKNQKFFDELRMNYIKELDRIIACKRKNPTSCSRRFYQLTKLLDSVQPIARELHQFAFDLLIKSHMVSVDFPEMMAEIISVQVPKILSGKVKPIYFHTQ
Experiment: LNCaP ARR2PB-FireflyLuc / CMV-RenillaLuc reporter assay, antagonist mode
Type: cell-based
Conditions: LNCaP cells expressing ARR2PB-FireflyLuc and CMV-RenillaLuc; +/- 0.5 nM DHT; 48 h at 37° C
Experimental: LNCaP cells expressing ARR2PB-FireflyLuc and CMV-RenillaLuc were treated with indicated concentrations of test compounds, enzalutamide ([…]), or DHT (positive control)+/−0.5 nM DHT for 48 h at 37° C. Fluorescent signals were read with the ImageXpress Micro Confocal System. Remaining activity (antagonist mode) was calculated as % Remaining Activity=100×[(ReadSample−[…])/(HCave−LCave)] where HC is cells treated with 0.5 nM DHT only and LC is cells treated with 10 uM enzalutamide+0.5 nM DHT. Activation (agonist mode) was calculated as % Activation=100×[(ReadSample−LCave)/(HCave−LCave)] where HC is cells treated with 1 uM DHT and LC is cells treated with DMSO. Dose response curves and IC50 values were calculated using non-linear regression analysis in XLfit.
The designation “A” indicates an IC50 value of >10 μM, “B” indicates an IC50 value between 1 μM and 10 μM; “C” indicates an IC50 value between 100 nM and 1 μM; and “D” indicates an IC50 value of less than 100 nM.

Compound: CCN1N=C(c2c[nH]c3c(C#N)cccc23)CCC1=O [Compound 001, 3-(1-ethyl-6-oxo-4,5-dihydropyridazin-3-yl)-1H-indole-7-carbonitrile]
- IC50: 100 to 1000 nM

Compound: CCn1nc(-c2c[nH]c3c(C#N)cccc23)ccc1=O [Compound 002, 3-(1-ethyl-6-oxopyridazin-3-yl)-1H-indole-7-carbonitrile]
- IC50: < 100 nM

Compound: CCn1nc(-c2c[nH]c3c(Cl)nccc23)ccc1=O [Compound 003, 6-[7-chloro-1H-pyrrolo[2,3-c]pyridin-3-yl]-2-ethylpyridazin-3-one]
- IC50: > 10000 nM

Compound: N#Cc1cccc2c(-c3ccc(=O)n(CC(F)F)n3)c[nH]c12 [Compound 004, 3-[1-(2,2-difluoroethyl)-6-oxopyridazin-3-yl]-1H-indole-7-carbonitrile]
- IC50: 100 to 1000 nM

Compound: CCn1nc(-c2c[nH]c3c(C#N)cccc23)c(C)cc1=O [Compound 005, 3-(1-ethyl-4-methyl-6-oxopyridazin-3-yl)-1H-indole-7-carbonitrile]
- IC50: 1000 to 10000 nM

Compound: CCn1nc(-c2c[nH]c3c(C#N)cccc23)cc(OC)c1=O [Compound 006, 3-(1-ethyl-5-methoxy-6-oxopyridazin-3-yl)-1H-indole-7-carbonitrile]
- IC50: 1000 to 10000 nM

Compound: CCn1cc(-c2c[nH]c3c(C#N)cccc23)cn1 [Compound 007, 3-(1-ethylpyrazol-4-yl)-1H-indole-7-carbonitrile]
- IC50: 1000 to 10000 nM

Compound: CCn1ccc(-c2c[nH]c3c(C#N)cccc23)n1 [Compound 008, 3-(1-ethylpyrazol-3-yl)-1H-indole-7-carbonitrile]
- IC50: < 100 nM

Compound: N#Cc1cccc2c(-c3ccn(C4CC4)n3)c[nH]c12 [Compound 009, 3-(1-cyclopropylpyrazol-3-yl)-1H-indole-7-carbonitrile]
- IC50: 100 to 1000 nM

Compound: CC(C)(O)Cn1ccc(-c2c[nH]c3c(C#N)cccc23)n1 [Compound 010, 3-[1-(2-hydroxy-2-methylpropyl)pyrazol-3-yl]-1H-indole-7-carbonitrile]
- IC50: > 10000 nM

Compound: CCn1nc(-c2c[nH]c3c(C#N)cccc23)cc1C [Compound 011, 3-(1-ethyl-5-methylpyrazol-3-yl)-1H-indole-7-carbonitrile]
- IC50: 100 to 1000 nM

Compound: CCn1nc(C)cc1-c1c[nH]c2c(C#N)cccc12 [Compound 012, 3-(2-ethyl-5-methylpyrazol-3-yl)-1H-indole-7-carbonitrile]
- IC50: < 100 nM

Source: patent US20220306609A1, “BICYCLIC COMPOUNDS AS ANDROGEN RECEPTOR MODULATORS” (NIDO BIOSCIENCES, INC., priority 2021, published 2022)
